Measurements taken from patent US10329309B2, “3-(3H-imidazo[4,5-B]pyridin-2-yl)-1H-pyrazolo[4,3-B]pyridines and therapeutic uses thereof” (Samumed, LLC, priority 2015, dated 2019).
pEC50: −log10 of the molar value.

Experiments:
Assay type in all cases: cell-based
[1] = test system: primary human mesenchymal stem cells (hMSCs); assay: Induction of chondrogenesis in primary human mesenchymal stem cells (nodule imaging, Rhodamine B/Nile Red); conditions: hMSC chondrogenesis; for Emax: TGF-β3 as positive control, read-out: Max. Activity as % TGF-β3 activity; for EC50: concentration required to induce 50% levels of chondrogenesis vs TGF-β3, read-out: Conc (nM) of 50% TGF-β3 activity
Protocol: Representative compounds were screened using primary human mesenchymal stem cells (hMSCs) to determine their ability to induce chondrogenesis (process by which cartilage is developed).
Primary human mesenchymal stem cells (hMSCs) were purchased from Lonza (Walkersville, Md.) and expanded in Mesenchymal Stem Cell Growth Media (Lonza). Cells between passage 3 and 6 were used for the experiments.
Each compound was dissolved in DMSO as a 10 mM stock and used to prepare compound source plates. For the 96 well assay, serial dilution (1:3, 6-point dose-response curves from 2700 nM to 10 nM) and compound transfer was performed using the ECHO 550 (Labcyte, Sunnyvale, Calif.) into 96-well clear bottom assay plates (Greiner Bio-One) with appropriate DMSO backfill for a final DMSO concentration of 0.03%. hMSCs were plated at 20,000 cells/well in 250 μL/well Incomplete Chondrogenic Induction Medium (Lonza; DMEM, dexamethasone, ascorbate, insulin-transferrin-selenium [ITS supplement], gentamycin-amphotericin [GA-1000], sodium pyruvate, proline and L-glutamine). TGF-−3 (10 ng/mL) was used as a positive control for differentiation while negative control wells were treated with 75 nL DMSO for normalization and calculating EC50 values. For the 384 well assay, serial dilution (1:3, 8-point dose-response curves from 5000 nM to 2.2 nM) and compound transfer was performed using the ECHO 550 (Labcyte, Sunnyvale, Calif.) into 384-well clear bottom assay plates (Greiner Bio-One) with appropriate DMSO backfill for a final DMSO concentration of 0.03%. hMSCs were plated at 8,000 cells/well in 80 μL/well Incomplete Chondrogenic Induction Medium (Lonza; DMEM, dexamethasone, ascorbate, insulin-transferrin-selenium [ITS supplement], gentamycin-amphotericin [GA-1000], sodium pyruvate, proline and L-glutamine). TGF-β3 (10 ng/mL) was used as a positive control for differentiation while negative control wells were treated with 25 nL DMSO for normalization and calculating EC50 values. Cells were incubated at 37° C. and 5% CO2 for 6 days. To image chondrogenic nodules, the cells were fixed using 4% formaldehyde (Electron Microscopy Sciences), and stained with 2 μg/mL Rhodamine B (Sigma-Aldrich) and 20 μM Nile Red (Sigma-Aldrich) [Johnson K., et. al, A Stem Cell-Based Approach to Cartilage Repair, Science, (2012), 336(6082), 717-721]. The nodules imaged (25 images per well for 96 well plates and 9 images per well for 384 well plates at 10× magnification) by excitation at 531 nm and emission at 625 nm and quantified using the CellInsight CX5 (Thermo Scientific). Area of nodules in each well was normalized to the average of 3 DMSO treated wells on the same plate using Excel (Microsoft Inc.). The normalized averages (fold change over DMSO) of 2 or 3 replicate wells for each compound concentration were calculated. Due to solubility limitations of some of the compounds, curve fitting was incomplete leading to inaccurate EC50 determinations.
Using TGF-β3 as a positive control, the concentration of representative compounds required to induce 50% levels of chondrogenesis is reported. In addition, the maximum activity of each compound and the respective dose that each compound reached maximum chondrogenesis activity is reported.

[2] = test system: SW480 colon cancer cells; assay: Cell viability assay (CellTiter-Blue), four days; conditions: Homo sapiens, 96 h; for pEC50: CellTiter-Blue cell viability; for inhibition at 10 µM: read-out: percent inhibition at 10 μM (given for EC50 of >10 μM)
Method in brief: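 SW480 cells (~2×10^3 per well) were exposed to compound for four days at 37 °C/5% CO2, using 8-point 1:3 dilutions from 10 μM to 0.0045 μM in duplicate. Viability was read by resazurin reduction (CellTiter-Blue, ~3 h, Ex 560/Em 590 nm). EC50 came from non-linear regression; above 10 μM, percent inhibition at 10 μM is given.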

[3] = test system: IL-6 (THP-1 cells); assay: Inhibition of IL-6 in LPS-stimulated THP-1 monocytes (HTRF); conditions: Homo sapiens; for pEC50: LPS 500 ng/mL, IL-6 by HTRF; for inhibition at 10 µM: LPS stimulated, IL-6, at 10 μM, read-out: percent inhibition at 10 μM (given for EC50 of >10 μM)
Method in brief: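 THP-1 cells, serum-starved in 1% FBS for 24 h, were pre-incubated 2 h with compound (10-point, 1:3 from 10 μM, 0.1% DMSO), then stimulated with 500 ng/mL LPS for 22 h at 37 °C. IL-6 was quantified by HTRF 665/620 ratio. EC50 was fitted from DMSO-normalized data; above 10 μM, % inhibition at 10 μM is given.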

| pEC50 [2] | pEC50 [3] | EC50 [1] [nM] | SMILES | Emax [1] [%] | inhibition at 10 µM [3] [%] | inhibition at 10 µM [2] [%] |
| --- | --- | --- | --- | --- | --- | --- |
| 5.97 | < 5.00 |  | Fc1ccc(-c2ccnc3[nH]c(-c4n[nH]c5ccc(-c6cncc(CN7CCCC7)c6)nc45)nc23)cc1 [Compound 42, 3-(7-(4-fluorophenyl)-3H-imidazo[4,5-b]pyridin-2-yl)-5-(5-(pyrrolidin-1-ylmethyl)pyridin-3-yl)-1H-pyrazolo[4,3-b]pyridine] | 17 | 46.1 |  |
| < 5.00 | 5.75 |  | NC1CN(c2cncc(-c3ccc4[nH]nc(-c5nc6c(-c7ccc(Cl)s7)ccnc6[nH]5)c4n3)n2)C1 [Compound 1068, 1-(6-(3-(7-(5-Chlorothiophen-2-yl)-3H-imidazo[4,5-b]pyridin-2-yl)-1H-pyrazolo[4,3-b]pyridin-5-yl)pyrazin-2-yl)azetidin-3-amine] |  |  | 17.8 |
| 6.92 | 5.08 |  | COc1cncc(-c2ccc3[nH]nc(-c4nc5c(-c6cccc(F)c6)ccnc5[nH]4)c3n2)c1 [Compound 516, 3-(7-(3-fluorophenyl)-3H-imidazo[4,5-b]pyridin-2-yl)-5-(5-methoxypyridin-3-yl)-1H-pyrazolo[4,3-b]pyridine] | 47 |  |  |
| 6.11 | 5.81 | 2 | Oc1cncc(-c2ccc3[nH]nc(-c4nc5c(-c6cccc(F)c6)ccnc5[nH]4)c3n2)c1 [Compound 517, 5-(3-(7-(3-fluorophenyl)-3H-imidazo[4,5-b]pyridin-2-yl)-1H-pyrazolo[4,3-b]pyridin-5-yl)pyridin-3-ol] | 59 |  |  |
| 6.40 | 6.53 | 21 | CC(C)CC(=O)Nc1cncc(-c2ccc3[nH]nc(-c4nc5c(-c6cccc(F)c6)ccnc5[nH]4)c3n2)c1 [Compound 2, N-(5-(3-(7-(3-fluorophenyl)-3H-imidazo[4,5-b]pyridin-2-yl)-1H-pyrazolo [4,3-b]pyridin-5-yl)pyridin-3-yl)-3-methylbutanamide] | 56 |  |  |
| 5.93 | < 5.00 |  | COc1cccc(-c2ccnc3[nH]c(-c4n[nH]c5ccc(-c6cncc(NC(=O)CC(C)(C)C)c6)nc45)nc23)c1 [Compound 1006, N-(5-(3-(7-(3-methoxyphenyl)-3H-imidazo[4,5-b]pyridin-2-yl)-1H-pyrazolo[4,3-b]pyridin-5-yl)pyridin-3-yl)-3,3-dimethylbutanamide] |  | 32.7 |  |
| < 5.00 | < 5.00 |  | Fc1ccccc1-c1ccnc2[nH]c(-c3n[nH]c4ccc(-c5ccccn5)nc34)nc12 [Compound 84, 3-(7-(2-Fluorophenyl)-3H-imidazo[4,5-b]pyridin-2-yl)-5-(pyridin-2-yl)-1H-pyrazolo[4,3-b]pyridine] |  | 23 | 0 |
| < 5.00 | < 5.00 |  | O=C(Nc1cncc(-c2ccc3[nH]nc(-c4nc5c(-c6ccsc6)ccnc5[nH]4)c3n2)c1)c1ccccc1 [Compound 291, N-(5-(3-(7-(Thiophen-3-yl)-3H-imidazo[4,5-b]pyridin-2-yl)-1H-pyrazolo [4,3-b]pyridin-5-yl)pyridin-3-yl)benzamide] |  | 21 | 2 |
| < 5.00 | < 5.00 |  | O=C(Nc1cncc(-c2ccc3[nH]nc(-c4nc5c(-c6cccs6)ccnc5[nH]4)c3n2)c1)C1CC1 [Compound 356, N-(5-(3-(7-(Thiophen-2-yl)-3H-imidazo[4,5-b]pyridin-2-yl)-1H-pyrazolo [4,3-b]pyridin-5-yl)pyridin-3-yl)cyclopropanecarboxamide] |  | 38 | 12.4 |
| 5.41 | < 5.00 |  | O=C(Nc1cncc(-c2ccc3[nH]nc(-c4nc5c(N6CCCCC6)ccnc5[nH]4)c3n2)c1)C1CC1 [Compound 188, N-(5-(3-(7-(Piperidin-1-yl)-3H-imidazo[4,5-b]pyridin-2-yl)-1H-pyrazolo [4,3-b]pyridin-5-yl)pyridin-3-yl)cyclopropanecarboxamide] |  | 28 |  |

Further lines, the molecule ahead of its results:

| SMILES | pEC50 [2] | pEC50 [3] | EC50 [1] [nM] | Emax [1] [%] | inhibition at 10 µM [3] [%] | inhibition at 10 µM [2] [%] |
| --- | --- | --- | --- | --- | --- | --- |
| Fc1cccc(-c2ccnc3[nH]c(-c4n[nH]c5ccc(C6=CCNCC6)nc45)nc23)c1 [Compound 506, 3-(7-(3-fluorophenyl)-3H-imidazo[4,5-b]pyridin-2-yl)-5-(1,2,3,6-tetrahydropyridin-4-yl)-1H-pyrazolo[4,3-b]pyridine] | 5.55 | < 5.00 |  | 47 | 27.9 |  |
| Cc1ccncc1-c1ccc2[nH]nc(-c3nc4c(-c5ccsc5)ccnc4[nH]3)c2n1 [Compound 285, 5-(4-methylpyridin-3-yl)-3-(7-(thiophen-3-yl)-3H-imidazo[4,5-b]pyridin-2-yl)-1H-pyrazolo[4,3-b]pyridine] | 6.03 | 5.01 |  | 33 |  |  |
| CC(C)Nc1cncc(-c2ccc3[nH]nc(-c4nc5c(-c6ccoc6)ccnc5[nH]4)c3n2)c1 [Compound 320, 5-(3-(7-(furan-3-yl)-3H-imidazo[4,5-b]pyridin-2-yl)-1H-pyrazolo[4,3-b]pyridin-5-yl)-N-isopropylpyridin-3-amine] | 6.42 | 6.34 | 100 | 64 |  |  |
| CS(=O)(=O)NCc1cc(F)cc(-c2ccnc3[nH]c(-c4n[nH]c5ccc(-c6cncc(CNCc7ccccc7)c6)nc45)nc23)c1 [Compound 500, N-(3-(2-(5-(5-((Benzylamino)methyl)pyridin-3-yl)-1H-pyrazolo[4,3-b]pyridin-3-yl)-3H-imidazo[4,5-b]pyridin-7-yl)-5-fluorobenzyl)methanesulfonamide] | 5.05 | < 5.00 |  |  | 45.6 |  |
| Fc1cccc(-c2ccnc3[nH]c(-c4n[nH]c5ccc(-c6cncc(OCCN7CCCC7)c6)nc45)nc23)c1 [Compound 514, 3-(7-(3-Fluorophenyl)-3H-imidazo[4,5-b]pyridin-2-yl)-5-(5-(2-(pyrrolidin-1-yl)ethoxy)pyridin-3-yl)-1H-pyrazolo[4,3-b]pyridine] | 5.06 | < 5.00 |  |  | 49.5 |  |
| COc1cccc(-c2ccnc3[nH]c(-c4n[nH]c5ccc(-c6cncc(NC(=O)C7CCCCC7)c6)nc45)nc23)c1 [Compound 1012, N-(5-(3-(7-(3-Methoxyphenyl)-3H-imidazo[4,5-b]pyridin-2-yl)-1H-pyrazolo [4,3-b]pyridin-5-yl)pyridin-3-yl)cyclohexanecarboxamide] | 5.54 | < 5.00 |  |  | 43.3 |  |
| CC(C)(C)CC(=O)Nc1cncc(-c2ccc3[nH]nc(-c4nc5c(-c6ccccc6F)ccnc5[nH]4)c3n2)c1 [Compound 72, N-(5-(3-(7-(2-fluorophenyl)-3H-imidazo[4,5-b]pyridin-2-yl)-1H-pyrazolo [4,3-b]pyridin-5-yl)pyridin-3-yl)-3,3-dimethylbutanamide] | < 5.00 | < 5.00 |  |  | 27.8 | 0 |
